{"source": "patent US20230372382A1", "about": "“USE OF ADENOSINE DIPHOSPHATE RIBOSE FOR ADJUVANT THERAPY WITH RADIATION AND/OR ANTI-CANCER TREATMENT” (PearlsInMires Co., Ltd., priority 2021, published 2023)", "key": {"[1]": {"tested_on": "U-87MG cells", "experiment": "Change over time in intracellular ADP-ribose, radiation versus ADP-ribose treatment (ELISA)", "format": "cell-based", "conditions": "8 μM ADP-ribose, even after 24 hours, after radiation back to untreated level at 24 hours", "procedure": "Brain cancer (U-87MG), kidney cancer (Caki-1), pancreatic cancer (AsPC-1), or breast cancer (MDA-MB-231) cells were cultured in a 6-well plate, respectively, and the cells were divided into the untreated group, the radiation-treated group, and the ADP-ribose-treated group. Irradiation was performed using an X-Rad 320 irradiator (Precision X-ray, North Branford, CT, USA), and cancer cells were treated with a total of 1, 2, and 5 Gy at a dose rate of 300 kVp and 150 cGy/min using an X-ray beam filter composed of 12.5 mA and 2.0 mm Al, respectively. Before treatment and at 4, 8, 16, and 24 hours after treatment, the medium was removed, the cells were washed with phosphate-buffered saline, and then RIPA buffer was added and the products were left on ice for 20 minutes. After scraping the cells, the cells were put in a centrifuge tube and centrifuged for 10 minutes at 10,000 g and 4° C. The supernatant was obtained, and 1% SDS was added, and then the reaction product was boiled at 100° C. for 5 minutes and cooled on ice. The supernatant was centrifuged again at 10,000 g and 4° C. for 10 minutes to obtain the final supernatant, and ADP-ribose was quantitatively analyzed using an ELISA analysis kit (Cell Biolabs, Inc., San Diego, CA, USA). […]"}, "[2]": {"tested_on": "H1975 cells", "experiment": "Cancer cell death verification (MTT cell viability)", "format": "cell-based", "method": "3×10^3 Brain cancer (U-87MG), lung cancer (H1975), pancreatic cancer (Aspc-1), liver cancer (Hep G2), breast cancer (MDA-MB-231), colon cancer (HCT116), kidney cancer (Caki-1), gastric cancer (SNU-1) and ovarian cancer (OVCAR-3) cells were cultured in a 96-well plate under conditions of 37° C. and 5% CO2 for 24 hours, and then each cancer cell was treated with ADP-ribose at each concentration. After culturing for 24 hours under conditions of 37° C. and 5% CO2 again, 10 μl of 3-(4,5-dimethylthiazol-2-yl)-2,5-diphenyltetrazolium bromide reagent was added to each well and reacted for 1 hour. After the reaction was completed, the reagent was removed, 200 μl of dimethyl sulfoxide was added to each well, and the absorbance was measured to determine the concentration of half-lethality and maximum lethality compared to untreated cells.\n3×10^3 H1975 cells were cultured in a 96-well plate for 24 hours under conditions of 37° C. and 5% CO2, treated with ADP-ribose at concentrations of 0.125, 0.25, 0.5, 1, 2, 4, 8, 16, and 32 μM, respectively, and cultured again for 24 hours under conditions of 37° C. and 5% CO2. Then, 10 μl of 3-(4,5-dimethylthiazol-2-yl)-2,5-diphenyltetrazolium bromide reagent was added to each well and reacted for 1 hour. After the reaction was completed, the reagent was removed, 200 μl of dimethyl sulfoxide was added to each well, and the absorbance was measured to confirm cell viability."}, "[3]": {"tested_on": "Brain cancer (U-87MG) cells", "experiment": "Xenograft model, combination with radiation, tumor volume", "format": "in vivo, BALB/c nude mice", "conditions": "U-87MG xenograft", "procedure": "Brain cancer (U-87MG), pancreatic cancer (AsPC-1), breast cancer (MDA-MB-231), or kidney cancer (Caki-1) cells (1×10^7 cells) were inoculated into 5-week-old BALB/c nude mice on the back flank, respectively. Then, when tumors were grown to a volume of approximately 150 mm^3, the mice were divided into three groups: the control group (Control), 2 Gy dose of radiation alone, and a combination administration of 2 Gy dose of radiation+10 mg/kg of ADP-ribose (subcutaneous administration, 3 times a week). The irradiation was performed with an X-Rad 320 irradiator (Precision X-ray, North Branford, CT, USA), wherein the mice were placed by maintaining an appropriate distance from the radiation source for irradiation with a predetermined radiation dose. A lead shield was used to protect the body parts or organs from exposure to radiation, other than the cancerous part of the mouse. The irradiation was performed with a total of 2 Gy of radiation fractionated into two doses of 1 Gy each (for 2 days) at a dose rate of 300 kVp and 150 cGy/min using an X-ray beam filter composed of 12.5 mA and 2.0 mm Al. The tumor size was measured every 6 days using a digital caliper, and the results of changes in tumor volume were compared by the group.\nBrain cancer (U-87MG) cells (1×10^7) were inoculated into 5-week-old BALB/c nude mice on the back flank, and the mice were divided into three groups: the control group, 2 Gy dose of radiation alone, and combination administration of 2 Gy dose radiation+10 mg/kg of ADP-ribose. When the tumors were grown to a volume of approximately 150 mm^3, 2 Gy dose of radiation was irradiated twice at 1 Gy each, and 10 mg/kg of ADP-ribose was injected subcutaneously 3 times a week. The tumor size was measured using a digital caliper, and the results of changes in tumor volume were compared by the group."}, "[4]": {"tested_on": "AsPC-1 cells", "experiment": "ADP-ribose quantitative analysis (ELISA) in cancer cells", "format": "cell-based", "conditions": "8 μM ADP-ribose, 24 hours, P<0.001", "procedure": "(§1) After culturing, the culture medium was removed, the cells were washed with phosphate-buffered saline, and then RIPA buffer was added and the cells were left on ice for 20 minutes. After scraping the cells, the cells were put in a centrifuge tube and centrifuged for 10 minutes at 10,000 g and 4° C. The supernatant was obtained, and 1% SDS was added, and then the reaction product was boiled at 100° C. for 5 minutes and cooled on ice. The supernatant was centrifuged again at 10,000 g and 4° C. for 10 minutes to obtain the final supernatant, and ADP-ribose was quantitatively analyzed and compared using an ELISA analysis kit (Cell Biolabs, Inc., San Diego, CA, USA).\n(§2) The medium of the cultured cells was removed, and the supernatant prepared by treatment with RIPA buffer and 1% sodium dodecyl sulfate (SDS) was used for ELISA analysis to detect and analyze ADP-ribose."}, "[5]": {"tested_on": "U-87MG cells", "experiment": "ADP-ribose quantitative analysis (ELISA) in cancer cells", "format": "cell-based", "conditions": "8 μM ADP-ribose, 24 hours, P<0.001", "procedure": "as §1, §2"}, "[6]": {"tested_on": "HCT116 cells", "experiment": "ADP-ribose quantitative analysis (ELISA) in cancer cells", "format": "cell-based", "conditions": "8 μM ADP-ribose, 24 hours, P<0.001", "procedure": "as §1, §2"}, "[7]": {"tested_on": "Caki-1 cells", "experiment": "ADP-ribose quantitative analysis (ELISA) in cancer cells", "format": "cell-based", "conditions": "16 μM ADP-ribose, 24 hours, P<0.001", "procedure": "as §1, §2"}, "[8]": {"tested_on": "H1975 cells", "experiment": "ADP-ribose quantitative analysis (ELISA) in cancer cells", "format": "cell-based", "conditions": "4 μM ADP-ribose, 24 hours, P<0.001", "procedure": "as §1, §2"}, "[9]": {"conditions": "ADP-ribose 10 mg/kg s.c. + 2 Gy radiation, P<0.001"}}, "data": [{"smiles": "Nc1ncnc2c1ncn2[C@@H]1O[C@H](COP(=O)(O)OP(=O)(O)OC[C@H]2O[C@@H](O)C(O)C2O)C(O)C1O", "note": "(stereo partly drawn) [ADP-ribose, adenosine diphosphate ribose]", "values": [{"measurement": "amount of ADP-ribose in the cells over time compared to the control group", "setting": "[1]", "result": "maintained a significant (P<0.001) increase"}, {"measurement": "maximum lethal dose (concentration at which almost all cells were killed)", "setting": "[2]; H1975, 24 hours, MTT", "result": 32, "unit": "µM"}, {"measurement": "cancer cell growth under a microscope", "setting": "[2]; H1975, ADP-ribose treated vs control, FIG. 3A", "result": "inhibited from growing and killed"}, {"measurement": "IC50", "setting": "[2]; Homo sapiens, NCI-H1975, 24 h, read-out: half-lethal dose (concentration at which about half of the cells were killed)", "result": "~2000", "unit": "nM"}, {"measurement": "reduction of tumor volume compared to the control group", "setting": "[3]; [9]", "result": "about 71.5%"}, {"measurement": "reduction of tumor volume compared to the group treated with 2 Gy dose of radiation alone", "setting": "[3]; [9]", "result": "about 50.7%"}, {"measurement": "final tumor volume", "setting": "[3]; ADP-ribose 10 mg/kg subcutaneous 3 times a week + 2 Gy radiation, control about 2545.2, 2 Gy alone about 1472.1", "result": "about 725.2 mm^3"}, {"measurement": "amount of ADP-ribose in cells compared to the control group", "setting": "[4]", "result": "remarkably increased significantly"}, {"measurement": "amount of ADP-ribose in cells compared to the control group", "setting": "[5]", "result": "remarkably increased significantly"}, {"measurement": "amount of ADP-ribose in cells compared to the control group", "setting": "[6]", "result": "remarkably increased significantly"}, {"measurement": "amount of ADP-ribose in cells compared to the control group", "setting": "[7]", "result": "remarkably increased significantly"}, {"measurement": "amount of ADP-ribose in cells compared to the control group", "setting": "[8]", "result": "remarkably increased significantly"}]}]}
